Measurements taken from ChEMBL document CHEMBL5370683, “Peptide-to-Small Molecule: Discovery of Non-Covalent, Active-Site Inhibitors of β-Herpesvirus Proteases” (ACS Med Chem Lett, 2023).
pEC50, pIC50: −log10 of the molar value. Peptide text beside a SMILES is read from it.

What was measured:
[1] = Cytotoxicity against HFF cells assessed as inhibition in cell viability incubated for 5 days by luminescence based analysis; format: toxicity; details: human, time 5 day
[2] = Apparent permeability across apical to basolateral side in LLC-PK1 cells at 2 uM incubated for 2 hrs by LC/MS/MS method; format: ADME, cell-based, Sus scrofa; details: pig
Human betaherpesvirus 5 = test: Antiviral activity against HCMV infected in HFF cells assessed as reduction in viral replication; format: functional, organism-based; details: Human betaherpesvirus 5, HFF
[3] = Inhibition of N-terminal 6 His-tagged HHV6 protease (2 to 230 residues) expressed in Escherichia coli BL21 cells using 5FAM-KPSILNASLTPETVKK as peptide substrate incubated for 3 hrs by fluorescence based analysis; parameters: species or system Human betaherpesvirus 6
[4] = Inhibition of amino terminal GST tagged HCMV protease (1 to 256 residues) expressed in Escherichia coli BL21 (DE3) cells using 5-carboxyfluorescein [FAM]-RGVVNASSRLAK as peptide substrate incubated for 3 hrs by fluorescence based analysis; parameters: species or system Human betaherpesvirus 5
[5] = Inhibition of amino terminal GST tagged HCMV protease F10A mutant (1 to 256 residues) expressed in Escherichia coli BL21 (DE3) cells using 5-carboxyfluorescein [FAM]-RGVVNASSRLAK as peptide substrate incubated for 3 hrs by fluorescence based analysis; parameters: species or system Human betaherpesvirus 5
[6] = Inhibition of N-terminal 6 His-tagged HHV6 protease F10A mutant (2 to 230 residues) expressed in Escherichia coli BL21 cells using 5FAM-KPSILNASLTPETVKK as peptide substrate incubated for 3 hrs by fluorescence based analysis; parameters: species or system Human betaherpesvirus 6
[7] = Inhibition of N-terminal 6 His-tagged HHV6 protease L11A mutant (2 to 230 residues) expressed in Escherichia coli BL21 cells using 5FAM-KPSILNASLTPETVKK as peptide substrate incubated for 3 hrs by fluorescence based analysis; parameters: species or system Human betaherpesvirus 6
[8] = Inhibition of amino terminal GST tagged HCMV protease L11A mutant (1 to 256 residues) expressed in Escherichia coli BL21 (DE3) cells using 5-carboxyfluorescein [FAM]-RGVVNASSRLAK as peptide substrate incubated for 3 hrs by fluorescence based analysis; parameters: species or system Human betaherpesvirus 5
[9] = Inhibition of amino terminal GST tagged HCMV protease P12A mutant (1 to 256 residues) expressed in Escherichia coli BL21 (DE3) cells using 5-carboxyfluorescein [FAM]-RGVVNASSRLAK as peptide substrate incubated for 3 hrs by fluorescence based analysis; parameters: species or system Human betaherpesvirus 5
[10] = Inhibition of N-terminal 6 His-tagged HHV6 protease P12A mutant (2 to 230 residues) expressed in Escherichia coli BL21 cells using 5FAM-KPSILNASLTPETVKK as peptide substrate incubated for 3 hrs by fluorescence based analysis; parameters: species or system Human betaherpesvirus 6

`Cc1ccc([C@@H](c2cn(C3CCCC3)nc2-c2ccccc2C)n2cccc(N3C[C@H](C(=O)NC45CCC(CC4)NC5=O)N(C)C3=O)c2=O)cc1` gave a CC50 at 120 h [1] of 51000 nM, a Papp A→B at 2 h, 2 µM [2] of 1.3 ×10⁻⁶ cm/s and a pEC50 (Human betaherpesvirus 5) of 4.22. It also gave a pIC50 [3] of 6.48 and a pIC50 [4] of 5.60.
`CC[C@H](C)[C@H](NC(=O)[C@H](Cc1ccccc1)NC(C)=O)C(=O)N[C@H](C(=O)NCC(=O)N[C@@H](Cc1c[nH]cn1)C(=O)N[C@@H](Cc1ccc(O)cc1)C(=O)N[C@@H](Cc1c[nH]c2ccccc12)C(=O)N[C@H](C(=O)N[C@@H](CCCNC(=N)N)C(=O)N[C@@H](C)C(=O)N[C@@H](CC(C)C)C(=O)N1CCC[C@H]1C(=O)N[C@@H](CS)C(=O)NCC(N)=O)C(C)C)[C@@H](C)O` (Ac-FITGHYWVRALPCG-NH2) gave a pIC50 [5] of over 7.12 and a pIC50 [6] of over 7.12.
In the case of `CC[C@H](C)[C@H](NC(=O)[C@H](Cc1ccccc1)NC(C)=O)C(=O)N[C@H](C(=O)NCC(=O)N[C@@H](Cc1c[nH]cn1)C(=O)N[C@@H](Cc1ccc(O)cc1)C(=O)N[C@@H](Cc1c[nH]c2ccccc12)C(=O)N[C@H](C(=O)N[C@@H](CCCNC(=N)N)C(=O)N[C@@H](Cc1ccccc1)C(=O)N[C@@H](C)C(=O)N1CCC[C@H]1C(=O)N[C@@H](CS)C(=O)NCC(N)=O)C(C)C)[C@@H](C)O` (Ac-FITGHYWVRFAPCG-NH2), the pIC50 [7] was over 7.12 and the pIC50 [8] was over 7.12.
Work on `CC[C@H](C)[C@H](NC(=O)[C@H](Cc1ccccc1)NC(C)=O)C(=O)N[C@H](C(=O)NCC(=O)N[C@@H](Cc1c[nH]cn1)C(=O)N[C@@H](Cc1ccc(O)cc1)C(=O)N[C@@H](Cc1c[nH]c2ccccc12)C(=O)N[C@H](C(=O)N[C@@H](CCCNC(=N)N)C(=O)N[C@@H](Cc1ccccc1)C(=O)N[C@@H](CC(C)C)C(=O)N[C@@H](C)C(=O)N[C@@H](CS)C(=O)NCC(N)=O)C(C)C)[C@@H](C)O` (Ac-FITGHYWVRFLACG-NH2) yielded a pIC50 [9] of over 7.12 and a pIC50 [10] of over 7.12.
